Measured values as given in US7425557B2, “Inhibitors of glycogen synthase kinase 3” (Novartis Vaccines and Diagnostics, Inc., priority 1998, dated 2008).
pIC50: −log10 of the molar value.

target: human GSK3β (Homo sapiens, UniProt P49841); assay: Screening for GSK3 inhibitory activity using a cell-free assay; format: biochemical; settings: read-out: IC50 with respect to GSK3
Outline: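 Compounds in DMSO were tested against human GSK3β over a three-hour kinase reaction. Radiolabeled phosphate transferred to the peptide was captured on streptavidin plates after EDTA/ATP stop and quantified by scintillation counting. Signal was plotted versus compound concentration.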

Chain of human GSK3β (P49841 whole entry): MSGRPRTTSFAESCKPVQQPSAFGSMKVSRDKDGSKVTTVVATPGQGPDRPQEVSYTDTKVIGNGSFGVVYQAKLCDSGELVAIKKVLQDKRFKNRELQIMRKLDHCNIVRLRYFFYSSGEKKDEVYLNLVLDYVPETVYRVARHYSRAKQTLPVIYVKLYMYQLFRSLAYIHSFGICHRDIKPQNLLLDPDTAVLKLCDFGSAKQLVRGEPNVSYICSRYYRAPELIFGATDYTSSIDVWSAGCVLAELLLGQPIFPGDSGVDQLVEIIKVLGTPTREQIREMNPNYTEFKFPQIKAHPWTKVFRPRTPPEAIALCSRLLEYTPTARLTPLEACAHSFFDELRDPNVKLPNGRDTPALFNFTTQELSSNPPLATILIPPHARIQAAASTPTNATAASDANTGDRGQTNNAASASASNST

`COc1ccc(CNC(=O)c2ccc(-c3ccnc(NCCNc4ccc([N+](=O)[O-])cn4)n3)cc2)cc1` [N-[(4-methoxyphenyl)methyl]{4-[2-({2-[(5-nitro(2-pyridyl))amino]ethyl}-amino)pyrimidin-4-yl]phenyl}carboxamide] and `Cc1cnc(CNC(=O)c2ccc(-c3ccnc(NCCNc4ccc([N+](=O)[O-])cn4)n3)cc2)cn1` [N-[(5-methylpyrazin-2-yl)methyl]{4-[2-({2-[(5-nitro(2-pyridyl))amino]ethyl}amino)pyrimidin-4-yl]phenyl}carboxamide] cannot be ordered by pIC50: at least 5.00 for the first, at least 5.00 for the second.

`O=C(NCc1ccccc1)c1ccc(-c2ccnc(NCCc3ccccn3)n2)cc1` [N-benzyl(4-{2-[(2-(2-pyridyl)ethyl)amino]pyrimidin-4-yl}phenyl)carboxamide] and `Cc1cccc(CNC(=O)c2ccc(-c3ccnc(NCc4cccc(Br)c4)n3)cc2)c1` [[4-(2-{[(3-bromophenyl)methyl]amino}pyrimidin-4-yl)phenyl]-N-[(3-methylphenyl)methyl]carboxamide] cannot be ordered by pIC50: at least 5.00 for the first, at least 5.00 for the second.

`CCCCNC(=O)c1cnc(NCCNc2ccc([N+](=O)[O-])cn2)nc1-c1ccc(C#N)cc1` [N-butyl[4-(4-cyanophenyl)-2-({2-[(5-nitro(2-pyridyl))amino]ethyl}amino)pyrimidin-5-yl]carboxamide] and `N#Cc1ccc(-c2nc(NCCNc3ccc([N+](=O)[O-])cn3)ncc2C(=O)NCCO)cc1` [[4-(4-cyanophenyl)-2-({2-[(5-nitro(2-pyridyl))amino]ethyl}amino)pyrimidin-5-yl]-N-(2-hydroxyethyl)carboxamide] cannot be ordered by pIC50: at least 6.00 for the first, at least 6.00 for the second.

`CC(=O)Nc1ccc(-c2ccnc(NCCNc3ccc([N+](=O)[O-])cn3)n2)cc1` [N-{4-[2-({2-[(5-nitro-2-pyridyl)amino]ethyl}amino)-pyrimidin-4-yl]phenyl}acetamide] and `O=[N+]([O-])c1ccc(NCCNc2nccc(NCc3ccccc3)n2)nc1` [[2-({2-[(5-nitro(2-pyridyl))amino]ethyl}amino)pyrimidin-4-yl]benzylamine] cannot be ordered by pIC50: at least 5.00 for the first, at least 5.00 for the second.

`COc1ccc(OC)c(CCNc2nccc(-c3cccnc3)n2)c1` [[2-(2,5-dimethoxyphenyl)ethyl](4-(3-pyridyl)pyrimidin-2-yl)amine] and `COc1ccc(OC)c(CCNc2nccc(-c3ccc(C(=O)NCc4cccc(Br)c4)cc3)n2)c1` [[4-(2-{[2-(2,5-dimethoxyphenyl)ethyl]amino}pyrimidin-4-yl)phenyl]-N-[(3-bromophenyl)methyl]carboxamide] cannot be ordered by pIC50: at least 5.00 for the first, at least 5.00 for the second.

`c1ccc(NCCNc2nccc(-c3cccnc3)n2)nc1` [[2-(2-pyridylamino)ethyl](4-(3-pyridyl)pyrimidin-2-yl)amine] and `Fc1ccc(-c2ccnc(NCCNc3ccccn3)n2)cc1F` [[4-(3,4-difluorophenyl)pyrimidin-2-yl][2-(2-pyridylamino)-ethyl]amine] cannot be ordered by pIC50: at least 5.00 for the first, at least 5.00 for the second.

`FC(F)(F)Oc1ccc(-c2ccnc(NCCNc3ccccn3)n2)cc1` [[2-(2-pyridylamino)ethyl]{4-[4-(trifluoromethoxy)-phenyl]pyrimidin-2-yl}amine] and `Clc1ccc(-c2ccnc(NCCNc3ccccn3)n2)c(Cl)c1` [[4-(2,4-dichlorophenyl)pyrimidin-2-yl][2-(2-pyridylamino)ethyl]amine] cannot be ordered by pIC50: at least 5.00 for the first, at least 5.00 for the second.

`CN(C)CCOC(=O)Nc1cnc(NCCNc2ccc([N+](=O)[O-])cn2)nc1-c1ccc(C#N)cc1` [[2-(dimethyl-amino)ethoxy]-N-[4-(4-cyanophenyl)-2-({2-[(5-nitro(2-pyridyl))amino]ethyl}amino)-pyrimidin-5-yl]carboxamide] and `CN(C)C(=O)c1cnc(NCCNc2ccc([N+](=O)[O-])cn2)nc1-c1ccc(C#N)cc1` [[4-(4-cyanophenyl)-2-({2-[(5-nitro(2-pyridyl))amino]ethyl}-amino)pyrimidin-5-yl]-N,N-dimethylcarboxamide] cannot be ordered by pIC50: at least 6.00 for the first, at least 6.00 for the second.

`Nc1nc(NCCNc2ncc(CO)c(-c3ccc(Cl)cc3Cl)n2)ccc1[N+](=O)[O-]` [[2-({2-[(6-amino-5-nitro(2-pyridyl))amino]ethyl}amino)-4-(2,4-dichlorophenyl)pyrimidin-5-yl]methan-1-ol] and `O=[N+]([O-])c1ccc(NCCNc2ncc(CO)c(-c3ccc(Cl)cc3Cl)n2)nc1` [[4-(2,4-dichlorophenyl)-2-({2-[(5-nitro(2-pyridyl))amino]ethyl}amino)-pyrimidin-5-yl]methan-1-ol] cannot be ordered by pIC50: at least 6.00 for the first, at least 6.00 for the second.

`Cn1ccnc1-c1cnc(NCCNc2ccc([N+](=O)[O-])cn2)nc1-c1ccc(Cl)cc1Cl` [[4-(2,4-dichlorophenyl)-5-(1-methylimidazol-2-yl)pyrimidin-2-yl]{2-[(5-nitro(2-pyridyl))amino]-ethyl}amine] and `Cc1nccn1-c1cnc(NCCNc2ccc([N+](=O)[O-])cn2)nc1-c1ccc(Cl)cc1Cl` [[4-(2,4-dichlorophenyl)-5-(2-methylimidazolyl)pyrimidin-2-yl]{2-[(5-nitro(2-pyridyl))amino]ethyl}amine] cannot be ordered by pIC50: at least 6.00 for the first, at least 6.00 for the second.

`Cc1cn(-c2cnc(NCCNc3ccc([N+](=O)[O-])cn3)nc2-c2ccc(Cl)cc2Cl)c(C)n1` [[4-(2,4-dichlorophenyl)-5-(2,4-dimethylimidazolyl)pyrimidin-2-yl]{2-[(5-nitro(2-pyridyl))amino]ethyl}amine] and `Cc1cn(-c2cnc(NCCNc3ccc([N+](=O)[O-])cn3)nc2-c2ccc(Cl)cc2Cl)cn1` [[4-(2,4-dichlorophenyl)-5-(4-methylimidazolyl)pyrimidin-2-yl]{2-[(5-nitro(2-pyridyl))amino]ethyl}amine] cannot be ordered by pIC50: at least 6.00 for the first, at least 6.00 for the second.

`Cc1c[nH]c(-c2cnc(NCCNc3ccc([N+](=O)[O-])cn3)nc2-c2ccc(Cl)cc2Cl)n1` [[4-(2,4-dichlorophenyl)-5-(4-methylimidazol-2-yl)pyrimidin-2-yl]{2-[(5-nitro(2-pyridyl))amino]ethyl}amine] and `O=[N+]([O-])c1ccc(NCCNc2ncc(-c3ncc[nH]3)c(-c3ccc(Cl)cc3Cl)n2)nc1` [[4-(2,4-dichlorophenyl)-5-imidazol-2-ylpyrimidin-2-yl]{2-[(5-nitro(2-pyridyl))amino]ethyl}amine] cannot be ordered by pIC50: at least 6.00 for the first, at least 6.00 for the second.

`CN1CCN(c2cnc(NCCNc3ccc([N+](=O)[O-])cn3)nc2-c2ccc(Cl)cc2Cl)CC1` [[4-(2,4-dichlorophenyl)-5-(4-methylpiperazinyl)pyrimidin-2-yl]{2-[(5-nitro(2-pyridyl))amino]ethyl}amine] and `CCc1cnc(NCCNc2ccc([N+](=O)[O-])cn2)nc1-c1ccc(Cl)cc1Cl` [[4-(2,4-dichlorophenyl)-5-ethylpyrimidin-2-yl]{2-[(5-nitro(2-pyridyl))amino]ethyl}amine] cannot be ordered by pIC50: at least 6.00 for the first, at least 6.00 for the second.

`O=[N+]([O-])c1ccc(NCCNc2ncc(CN3CCOCC3)c(-c3ccc(Cl)cc3Cl)n2)nc1` [[4-(2,4-dichlorophenyl)-5-(morpholin-4-ylmethyl)pyrimidin-2-yl]{2-[(5-nitro(2-pyridyl))amino]ethyl}amine] and `O=[N+]([O-])c1ccc(NCCN(CCN2CCOCC2)c2ncc(-n3ccnc3)c(-c3ccc(Cl)cc3Cl)n2)nc1` [[4-(2,4-dichlorophenyl)-5-imidazolylpyrimidin-2-yl](2-morpholin-4-ylethyl){2-[(5-nitro(2-pyridyl))amino]ethyl}amine] cannot be ordered by pIC50: at least 6.00 for the first, at least 6.00 for the second.

`FC(F)(F)c1ccc(NCCNc2ncc(-c3ncc[nH]3)c(-c3ccc(Cl)cc3Cl)n2)nc1` [[4-(2,4-dichlorophenyl)-5-imidazol-2-ylpyrimidin-2-yl](2-{[5-(trifluoromethyl)(2-pyridyl)]amino}ethyl) amine] and `O=[N+]([O-])c1ccc(NCCNc2ncc(-c3ncc[nH]3)c(-c3ccc(F)cc3Cl)n2)nc1` [[4-(2-chloro-4-fluorophenyl)-5-imidazol-2-ylpyrimidin-2-yl]{2-[(5-nitro(2-pyridyl))amino]ethyl}amine] cannot be ordered by pIC50: at least 6.00 for the first, at least 6.00 for the second.

`COc1nc(NCCNc2ncc(-c3ncc[nH]3)c(-c3ccc(Cl)cc3Cl)n2)ccc1[N+](=O)[O-]` [[4-(2,4-dichlorophenyl)-5-imidazol-2-ylpyrimidin-2-yl]{2-[(6-methoxy-5-nitro(2-pyridyl))amino]ethyl}amine] and `O=[N+]([O-])c1ccc(NCCNc2ncc(-c3ncc[nH]3)c(-c3ccc(Br)cc3Cl)n2)nc1` [[4-(4-bromo-2-chlorophenyl)-5-imidazol-2-ylpyrimidin-2-yl]{2-[(5-nitro(2-pyridyl))amino]ethyl}amine] cannot be ordered by pIC50: at least 6.00 for the first, at least 6.00 for the second.

`CN(C)CCN(CCNc1ccc([N+](=O)[O-])cn1)c1ncc(-n2ccnc2)c(-c2ccc(Cl)cc2Cl)n1` [[4-(2,4-dichlorophenyl)-5-imidazolylpyrimidin-2-yl][2-(dimethylamino)ethyl]{2-[(5-nitro(2-pyridyl))amino]ethyl}amine] and `O=[N+]([O-])c1ccc(NCCN(CCN2CCCC2)c2ncc(-n3ccnc3)c(-c3ccc(Cl)cc3Cl)n2)nc1` [[4-(2,4-dichlorophenyl)-5-imidazolylpyrimidin-2-yl]{2-[(5-nitro(2-pyridyl))amino]ethyl}(2-pyrrolidinylethyl)amine] cannot be ordered by pIC50: at least 6.00 for the first, at least 6.00 for the second.

`Cc1nc(C)c(-c2ccnc(NCCNc3ccc([N+](=O)[O-])cn3)n2)s1` [[4-(2,4-dimethyl(1,3-thiazol-5-yl))pyrimidin-2-yl]{2-[(5-nitro(2-pyridyl))-amino]ethyl}amine] and `O=[N+]([O-])c1ccc(NCCNc2ncc(-c3ncc[nH]3)c(-c3ccc(Cl)cc3)n2)nc1` [[4-(4-chlorophenyl)-5-imidazol-2-ylpyrimidin-2-yl]{2-[(5-nitro(2-pyridyl))amino]ethyl}amine] cannot be ordered by pIC50: at least 5.00 for the first, at least 6.00 for the second.

`Cc1cnc(NCCNc2ccccn2)nc1-c1ccc(Cl)cc1` [[4-(4-chlorophenyl)-5-methylpyrimidin-2-yl][2-(2-pyridylamino)ethyl]amine] and `CNC(=O)c1cnc(NCCNc2ccc([N+](=O)[O-])cn2)nc1-c1ccc(C#N)cc1` [[4-(4-cyanophenyl)-2-({2-[(5-nitro(2-pyridyl))amino]ethyl}amino)-pyrimidin-5-yl]-N-methylcarboxamide] cannot be ordered by pIC50: at least 5.00 for the first, at least 6.00 for the second.

Work on `N#Cc1ccc(-c2nc(NCCNc3ccc([N+](=O)[O-])cn3)ncc2C(=O)NCc2ccncc2)cc1` [[4-(4-cyanophenyl)-2-({2-[(5-nitro(2-pyridyl))-amino]ethyl}amino)pyrimidin-5-yl]-N-(4-pyridylmethyl)carboxamide] yielded a pIC50 of at least 6.00.
